According to ChEMBL document CHEMBL1681651, “A broad spectrum anticancer nucleoside with selective toxicity against human colon cells in vitro” (2011):

Key:
Type in all cases: functional
SK-OV-3 [1] = test: Growth inhibition of human SKOV3 cells assessed as cell growth at 1 uM after 48 hrs by SRB assay; conditions: SK-OV-3, 48 h, read-out: Activity
A498 [2] = test: Growth inhibition of human A498 cells assessed as cell growth at 1 uM after 48 hrs by SRB assay; conditions: A498, 48 h, read-out: Activity
MCF7 = test: Growth inhibition of human MCF7 cells assessed as cell growth at 1 uM after 48 hrs by SRB assay; conditions: MCF7, 48 h, read-out: Activity
A549 = test: Growth inhibition of human A549 cells after 48 hrs by […] growth inhibition assay; conditions: A549, 48 h
M14 [3] = test: Growth inhibition of human M14 cells after 48 hrs by […] growth inhibition assay; conditions: M14, 48 h
IGROV-1 [4] = test: Growth inhibition of human IGROV1 cells after 48 hrs by […] growth inhibition assay; conditions: IGROV-1, 48 h
SK-OV-3 [5] = test: Growth inhibition of human SKOV3 cells after 48 hrs by […] growth inhibition assay; conditions: SK-OV-3, 48 h
A498 [6] = test: Growth inhibition of human A498 cells after 48 hrs by […] growth inhibition assay; conditions: A498, 48 h
NCI-H460 = test: Growth inhibition of human NCI-H460 cells assessed as cell growth at 0.1 uM after 48 hrs by SRB assay; conditions: NCI-H460, 48 h, read-out: Activity
COLO 205 = test: Growth inhibition of human COLO205 cells assessed as cell growth at 0.1 uM after 48 hrs by SRB assay; conditions: COLO 205, 48 h, read-out: Activity
HT-29 = test: Growth inhibition of human HT-29 cells assessed as cell growth at 0.1 uM after 48 hrs by SRB assay; conditions: HT-29, 48 h, read-out: Activity
OVCAR-5 = test: Growth inhibition of human OVCAR5 cells assessed as cell growth at 0.1 uM after 48 hrs by SRB assay; conditions: OVCAR-5, 48 h, read-out: Activity
DU-145 = test: Growth inhibition of human DU145 cells assessed as cell growth at 0.1 uM after 48 hrs by SRB assay; conditions: DU-145, 48 h, read-out: Activity
MDA-MB-231 = test: Growth inhibition of human MDA-MB-231 cells assessed as cell growth at 0.1 uM after 48 hrs by SRB assay; conditions: MDA-MB-231, 48 h, read-out: Activity
LOX IMVI = test: Growth inhibition of human LOXIMVI cells assessed as cell growth at 10 uM after 48 hrs by SRB assay; conditions: read-out: Activity
SK-MEL-5 = test: Growth inhibition of human SK-MEL-5 cells assessed as cell growth at 10 uM after 48 hrs by SRB assay; conditions: SK-MEL-5, 48 h, read-out: Activity
UO-31 [7] = test: Growth inhibition of human UO31 cells assessed as cell growth at 10 uM after 48 hrs by SRB assay; conditions: UO-31, 48 h, read-out: Activity
NCI/ADR-RES = test: Growth inhibition of human NCI/ADR-RES cells assessed as cell growth at 10 uM after 48 hrs by SRB assay; conditions: read-out: Activity
NCI-H23 = test: Growth inhibition of human NCI-H23 cells assessed as cell growth at 100 uM after 48 hrs by SRB assay; conditions: NCI-H23, 48 h, read-out: Activity
HCC 2998 = test: Growth inhibition of human HCC2998 cells assessed as cell growth at 100 uM after 48 hrs by SRB assay; conditions: HCC 2998, 48 h, read-out: Activity
RXF 393 [8] = test: Growth inhibition of human RXF393 cells assessed as cell growth at 100 uM after 48 hrs by SRB assay; conditions: RXF 393, 48 h, read-out: Activity
UO-31 [9] = test: Growth inhibition of human UO31 cells assessed as cell growth at 100 uM after 48 hrs by SRB assay; conditions: UO-31, 48 h, read-out: Activity
MDA-MB-435 = test: Growth inhibition of human MDA-MB-435 cells assessed as cell growth at 100 uM after 48 hrs by SRB assay; conditions: MDA-MB-435, 48 h, read-out: Activity
EKVX = test: Growth inhibition of human EKVX cells assessed as cell growth at 1 mM after 48 hrs by SRB assay; conditions: read-out: Activity
IGROV-1 [10] = test: Growth inhibition of human IGROV1 cells assessed as cell growth at 1 mM after 48 hrs by SRB assay; conditions: IGROV-1, 48 h, read-out: Activity
OVCAR-3 = test: Growth inhibition of human OVCAR3 cells assessed as cell growth at 1 mM after 48 hrs by SRB assay; conditions: OVCAR-3, 48 h, read-out: Activity
OVCAR-8 = test: Growth inhibition of human OVCAR8 cells assessed as cell growth at 1 mM after 48 hrs by SRB assay; conditions: OVCAR-8, 48 h, read-out: Activity
RXF 393 [11] = test: Growth inhibition of human RXF393 cells assessed as cell growth at 1 mM after 48 hrs by SRB assay; conditions: RXF 393, 48 h, read-out: Activity
HCT-116 = test: Growth inhibition of human HCT116 cells assessed as cell growth at 1 uM after 48 hrs by SRB assay; conditions: HCT-116, 48 h, read-out: Activity
M14 [12] = test: Growth inhibition of human M14 cells assessed as cell growth at 1 uM after 48 hrs by SRB assay; conditions: M14, 48 h, read-out: Activity
SW-620 = test: Growth inhibition of human SW620 cells assessed as cell growth at 10 uM after 48 hrs by SRB assay; conditions: SW-620, 48 h, read-out: Activity
[13] = Growth inhibition of human Hs 578T cells assessed as cell growth at 10 uM after 48 hrs by SRB assay; conditions: read-out: Activity
[14] = read-out: LC50 (the source's name)
[15] = read-out: pLC50 (the source's name) (converted)

CNC(=O)NC[C@H]1O[C@@H](n2cnc3c(NC(=O)Nc4ccccc4)ncnc32)[C@H](O[Si](C)(C)C(C)(C)C)[C@@H]1O[Si](C)(C)C(C)(C)C
growth at 1 µM (SK-OV-3 [1]): 113%
growth at 1 µM (A498 [2]): 97%
growth at 1 µM (MCF7): 96%
GI50 (A549; read-out: GI50): 2.9 µM
CC50 (A549; [14]): > 100 µM
TGI (A549; read-out: TGI): 12.8 µM
GI50 (A549; read-out: pGI50 (converted)): 2.88 µM
CC50 (A549; [15]): > 100 µM
TGI (A549; read-out: pTGI (converted)): 12.9 µM
GI50 (M14 [3]; read-out: GI50): 4.33 µM
CC50 (M14 [3]; [14]): 93.8 µM
TGI (M14 [3]; read-out: TGI): 18.5 µM
GI50 (M14 [3]; read-out: pGI50 (converted)): 4.37 µM
CC50 (M14 [3]; [15]): 93.3 µM
TGI (M14 [3]; read-out: pTGI (converted)): 18.6 µM
GI50 (IGROV-1 [4]; read-out: GI50): 2.74 µM
CC50 (IGROV-1 [4]; [14]): > 100 µM
TGI (IGROV-1 [4]; read-out: TGI): 7.76 µM
GI50 (IGROV-1 [4]; read-out: pGI50 (converted)): 2.75 µM
CC50 (IGROV-1 [4]; [15]): > 100 µM
TGI (IGROV-1 [4]; read-out: pTGI (converted)): 7.76 µM
GI50 (SK-OV-3 [5]; read-out: GI50): 6.88 µM
CC50 (SK-OV-3 [5]; [14]): > 100 µM
TGI (SK-OV-3 [5]; read-out: TGI): > 100 µM
GI50 (SK-OV-3 [5]; read-out: pGI50 (converted)): 6.92 µM
CC50 (SK-OV-3 [5]; [15]): > 100 µM
TGI (SK-OV-3 [5]; read-out: pTGI): > 100 µM
GI50 (A498 [6]; read-out: GI50): 2.03 µM
CC50 (A498 [6]; [14]): 19.5 µM
TGI (A498 [6]; read-out: TGI): 4.96 µM
GI50 (A498 [6]; read-out: pGI50 (converted)): 2.04 µM
CC50 (A498 [6]; [15]): 19.5 µM
TGI (A498 [6]; read-out: pTGI (converted)): 5.01 µM
growth at 0.1 µM (NCI-H460): 104%
growth at 0.1 µM (COLO 205): 109%
growth at 0.1 µM (HT-29): 102%
growth at 0.1 µM (OVCAR-5): 96%
growth at 0.1 µM (DU-145): 103%
growth at 0.1 µM (MDA-MB-231): 105%
growth at 10 µM (LOX IMVI): 98%
growth at 10 µM (SK-MEL-5): 89%
growth at 10 µM (UO-31 [7]): 84%
growth at 10 µM (NCI/ADR-RES): 103%
growth at 100 µM (NCI-H23): -5%
growth at 100 µM (HCC 2998): -79%
growth at 100 µM (RXF 393 [8]): -73%
growth at 100 µM (UO-31 [9]): -2%
growth at 100 µM (MDA-MB-435): 9%
growth at 1000 µM (EKVX): -9%
growth at 1000 µM (IGROV-1 [10]): -39%
growth at 1000 µM (OVCAR-3): -50%
growth at 1000 µM (OVCAR-8): -9%
growth at 1000 µM (RXF 393 [11]): -77%
growth at 1 µM (HCT-116): 105%
growth at 1 µM (M14 [12]): 107%

CCOC(=O)C[C@H]1[C@@H](O[Si](C)(C)C(C)(C)C)[C@H](n2cnc3c(NC(=O)Nc4ccccc4)ncnc32)O[C@@H]1CNC(=O)NC
growth at 1 µM (SK-OV-3 [1]): 96%
growth at 1 µM (A498 [2]): 92%
growth at 1 µM (MCF7): 91%
growth at 10 µM (SW-620): 97%
GI50 (A549; read-out: GI50): 4.18 µM
CC50 (A549; [14]): 79.1 µM
TGI (A549; read-out: TGI): 19.2 µM
GI50 (A549; read-out: pGI50 (converted)): 4.17 µM
CC50 (A549; [15]): 79.4 µM
TGI (A549; read-out: pTGI (converted)): 19.1 µM
GI50 (M14 [3]; read-out: GI50): 2.51 µM
CC50 (M14 [3]; [14]): 78.6 µM
TGI (M14 [3]; read-out: TGI): 11.6 µM
GI50 (M14 [3]; read-out: pGI50 (converted)): 2.51 µM
CC50 (M14 [3]; [15]): 79.4 µM
TGI (M14 [3]; read-out: pTGI (converted)): 11.5 µM
GI50 (IGROV-1 [4]; read-out: GI50): 3.85 µM
CC50 (IGROV-1 [4]; [14]): 79.2 µM
TGI (IGROV-1 [4]; read-out: TGI): 18 µM
GI50 (IGROV-1 [4]; read-out: pGI50 (converted)): 3.89 µM
CC50 (IGROV-1 [4]; [15]): 79.4 µM
TGI (IGROV-1 [4]; read-out: pTGI (converted)): 18.2 µM
GI50 (SK-OV-3 [5]; read-out: GI50): 21 µM
CC50 (SK-OV-3 [5]; [14]): > 100 µM
TGI (SK-OV-3 [5]; read-out: TGI): > 100 µM
GI50 (SK-OV-3 [5]; read-out: pGI50 (converted)): 20.9 µM
CC50 (SK-OV-3 [5]; [15]): > 100 µM
TGI (SK-OV-3 [5]; read-out: pTGI): > 100 µM
GI50 (A498 [6]; read-out: GI50): 3.34 µM
CC50 (A498 [6]; [14]): > 100 µM
TGI (A498 [6]; read-out: TGI): 17.1 µM
GI50 (A498 [6]; read-out: pGI50 (converted)): 3.31 µM
CC50 (A498 [6]; [15]): > 100 µM
TGI (A498 [6]; read-out: pTGI (converted)): 17 µM
growth at 0.1 µM (NCI-H460): 102%
growth at 0.1 µM (COLO 205): 102%
growth at 0.1 µM (HT-29): 104%
growth at 0.1 µM (OVCAR-5): 104%
growth at 0.1 µM (DU-145): 110%
growth at 0.1 µM (MDA-MB-231): 101%
growth at 10 µM (LOX IMVI): 93%
growth at 10 µM (SK-MEL-5): 89%
growth at 10 µM (UO-31 [7]): 82%
growth at 10 µM (NCI/ADR-RES): 104%
growth at 10 µM [13]: 90%
growth at 100 µM (NCI-H23): 65%
growth at 100 µM (HCC 2998): 69%
growth at 100 µM (RXF 393 [8]): -46%
growth at 100 µM (UO-31 [9]): 61%
growth at 100 µM (MDA-MB-435): 40%
growth at 1000 µM (EKVX): 42%
growth at 1000 µM (IGROV-1 [10]): -58%
growth at 1000 µM (OVCAR-3): -53%
growth at 1000 µM (OVCAR-8): -4%
growth at 1000 µM (RXF 393 [11]): -59%
growth at 1 µM (HCT-116): 113%
growth at 1 µM (M14 [12]): 82%
